Source: patent US8741932B2, “Imidazopyridine derivatives” (Piramal Enterprises Limited, priority 2009, dated 2014)
Where two headings read alike, the source gives them in different places.

Experiments:
A549 = assay: Cytotoxicity assay (propidium iodide), A549; assay type: cell-based; details: A549 (C1a, lung), 48 hours
H460 = assay: Cytotoxicity assay (propidium iodide), H460; assay type: cell-based; details: H460 (C1b, lung), 48 hours
A2780 = assay: Cytotoxicity assay (propidium iodide), A2780; assay type: cell-based; details: A2780 (C3a, ovarian), 48 hours
Procedure: (§4) Cells from cell lines as mentioned in the table given below were seeded at a density of 3000 cells/well in a white opaque 96-well plate. Following incubation at 37° C./5% CO2 for a period of 18-24 hours, the cells were treated with various concentrations (stock solution was prepared in DMSO and subsequent dilutions were made in media as per ATCC guidelines) of the representative compounds of present invention (refer table 3) for a period of 48 hours. At the end of treatment, the spent culture medium was discarded, the cells were washed with 1×PBS and 200 μl of 7 μg/ml propidium iodide was added to each well. The plates were frozen at −70° C. for at least 24 hours. For analysis, the plates were brought to RT, allowed to thaw and were read in PolarStar fluorimeter with the fluorescence setting. The percentage of viable cells in the non treated set of wells was considered to be 100 and the percentage viability following treatment was calculated accordingly. IC50 values were calculated from graphs plotted using these percentages.

MDA MB 468 = assay: Cytotoxicity assay (propidium iodide), MDA MB 468; assay type: cell-based; details: Homo sapiens; MDA MB 468 (C6b, breast); 48 hours
BT 549 = assay: Cytotoxicity assay (propidium iodide), BT 549; assay type: cell-based; details: Homo sapiens; BT 549 (C6d, breast); 48 hours
Procedure: as §4

STAT3 = STAT3 bioassay (Hela Stat3-luc, luciferase); assay type: cell-based; details: Oncostatin M induction
Procedure, shortened: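 Hela Stat3-luc cells (20,000/well, 24 h) pretreated with compound 1 h, then induced with 100 ng/ml final Oncostatin M for 7-8 h at 37 °C. Luciferase luminescence after lysis; percent inhibition versus induction control, IC50 from these percentages.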

IL-6 [1] = assay: Human monocyte assay, LPS-stimulated IL-6; assay type: cell-based; details: human monocytes, 1 μg/ml LPS, 5 hours
Procedure, shortened: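 Adherent human PBMC-derived monocytes (2×10^4/well) were cultured 48 h, preincubated 30 min with compound or 0.5% DMSO, then stimulated with 1 μg/ml E. coli LPS for 5 h at 37° C. TNF-α and IL-6 in supernatants were measured by ELISA.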

IL-6 [2] = assay: Synovial tissue assay, IL-6; assay type: cell-based; details: Homo sapiens; synovial tissue cells from rheumatoid arthritis patients, 16 hours
Procedure: (§1) The assay was designed as in the reference, Lancet, 2(8657), 244-7, Jul.
(§2) Stock Solution: Compounds of the present invention were dissolved in DMSO to obtain a stock solution of 20 mM.
(§3) Synovial tissue was obtained from rheumatoid arthritis patients undergoing knee replacement surgery. The tissue was minced into small pieces and digested in RPMI medium containing 100 U/ml penicillin-G, 100 μg/ml streptomycin, 50 ng/ml amphotericin B (GIBCO; USA), 1.33 mg/ml collagenase Type I (Worthington Biochemical Corporation, New Jersey), 0.5 μg/ml DNAse Type I (Sigma Aldrich; St. Louis, Mo.) and 8.33 U/ml heparin (Biological E. Limited, India) for 3 hours at 37° C., 5% CO2. The digested tissue was filtered through a membrane (mesh size 70 micron; Sigma Aldrich). Subsequently, the cells were washed 3 times and resuspended in complete medium (RPMI supplemented with 5% FBS and 5% human serum-AB+) at a concentration of 1×10^6 cells/ml. All cell washes in this assay were performed using Rosewall Park Memorial Institute (RPMI)-1640 medium (JRH; Australia). For the experiment, 100 μl of cell suspension was added to the wells of a 96-well culture plate. Following cell plating, 100 μl of the culture medium and 1 μl of various concentrations (0.01, 0.03, 0.1, 0.3, 1, 3, 10, 30 and 100 μM) of the compounds of present invention dissolved in DMSO were added to the cells. The final concentration of DMSO was adjusted to 0.5%. For experimental purposes, 1 μl of […] concentrated solution of the compounds of present invention were dissolved in 200 μl cell suspension to achieve a final concentration of 0.01, 0.03, 0.1, 0.3, 1, 3, 10, 30 and 100 μM. The vehicle (0.5% DMSO) was used as control. 10 μM dexamethasone (Sigma Aldrich) or 1 μM 7-hydroxyfluorinide (7HF) were used as standards for the experiments. The plates were incubated for 16 hours at 37° C., 5% CO2. Subsequently, the supernatants were harvested and stored at −70° C. The amounts of TNF-α, IL-6 and interleukin-8 (IL-8) in the supernatants were assayed using OptiEIA ELISA sets, (BD BioSciences Pharmingen). The protocol followed was as per manufacturers instructions. […] The cytotoxicity of test compounds in synovial cells was assessed by MTS assay. Absorbance was measured at 490 nm. Percent cytotoxicity was calculated by the equation: % Cytotoxicity=(A−B)/A×100 where, A is the absorbance of cells treated with DMSO alone and B is the absorbance of cells treated with the test article.

TNF-α = assay: Synovial tissue assay, TNF-α; assay type: cell-based; details: Homo sapiens; synovial tissue cells from rheumatoid arthritis patients, 16 hours
Procedure: as §1, §2, §3

IL-8 = assay: Synovial tissue assay, IL-8; assay type: cell-based; details: Homo sapiens; synovial tissue cells from rheumatoid arthritis patients, 16 hours
Procedure: as §1, §2, §3

PC3 [3] = assay: Cytotoxicity assay (propidium iodide), PC3; details: Homo sapiens, PC-3, 48 h, read-out: IC50 cytotoxicity
Procedure: as §4

HCT116 = assay: Cytotoxicity assay (propidium iodide), HCT116; assay type: cell-based; details: Homo sapiens, HCT-116; HCT116 (C4b, colon); 48 hours
U 373 = assay: Cytotoxicity assay (propidium iodide), U 373; assay type: cell-based; details: Homo sapiens, U373 MG; U 373 (C8a, glioblastoma); 48 hours
Procedure: as §4

U 87 MG = assay: Cytotoxicity assay (propidium iodide), U 87 MG; assay type: cell-based; details: Homo sapiens; U 87 MG (C8b, glioblastoma); 48 hours
Procedure: as §4

PI3Kα kinase = molecular target: T1, PI3Kα kinase (Homo sapiens, UniProt P42336); assay: Kinase assay (PI3Kα); assay type: biochemical; details: read-out: IC50 (μM) for PI3K inhibition
T1 construct: purchased Millipore, USA
T1 sequence (P42336 whole entry): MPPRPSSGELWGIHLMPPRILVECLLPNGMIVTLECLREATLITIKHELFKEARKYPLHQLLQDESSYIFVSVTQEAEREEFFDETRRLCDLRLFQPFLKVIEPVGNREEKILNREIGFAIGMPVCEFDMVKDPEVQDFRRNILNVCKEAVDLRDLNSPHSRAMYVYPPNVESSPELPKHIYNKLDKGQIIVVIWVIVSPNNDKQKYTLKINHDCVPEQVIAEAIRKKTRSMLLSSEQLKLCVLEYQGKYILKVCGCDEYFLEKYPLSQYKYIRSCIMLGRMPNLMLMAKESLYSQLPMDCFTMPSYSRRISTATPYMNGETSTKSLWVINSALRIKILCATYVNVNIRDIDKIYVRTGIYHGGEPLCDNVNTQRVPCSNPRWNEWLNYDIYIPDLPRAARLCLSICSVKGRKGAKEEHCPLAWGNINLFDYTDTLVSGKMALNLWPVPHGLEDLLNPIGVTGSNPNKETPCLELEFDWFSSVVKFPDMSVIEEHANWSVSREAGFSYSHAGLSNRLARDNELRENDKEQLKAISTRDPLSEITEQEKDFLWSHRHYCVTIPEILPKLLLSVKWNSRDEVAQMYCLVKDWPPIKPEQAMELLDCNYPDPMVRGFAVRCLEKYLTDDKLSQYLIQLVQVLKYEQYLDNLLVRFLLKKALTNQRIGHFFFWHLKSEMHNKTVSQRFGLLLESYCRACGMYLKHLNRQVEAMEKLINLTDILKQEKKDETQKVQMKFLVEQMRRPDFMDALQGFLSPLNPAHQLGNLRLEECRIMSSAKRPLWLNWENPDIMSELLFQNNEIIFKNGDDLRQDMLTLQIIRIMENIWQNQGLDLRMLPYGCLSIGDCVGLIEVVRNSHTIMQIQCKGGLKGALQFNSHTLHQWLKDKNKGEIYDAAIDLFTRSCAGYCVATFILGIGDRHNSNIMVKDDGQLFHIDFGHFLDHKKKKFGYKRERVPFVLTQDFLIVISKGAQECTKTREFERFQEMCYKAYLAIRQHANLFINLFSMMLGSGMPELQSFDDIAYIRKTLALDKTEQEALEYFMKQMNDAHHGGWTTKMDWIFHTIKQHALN
T1 sequence (P27986 whole entry partner): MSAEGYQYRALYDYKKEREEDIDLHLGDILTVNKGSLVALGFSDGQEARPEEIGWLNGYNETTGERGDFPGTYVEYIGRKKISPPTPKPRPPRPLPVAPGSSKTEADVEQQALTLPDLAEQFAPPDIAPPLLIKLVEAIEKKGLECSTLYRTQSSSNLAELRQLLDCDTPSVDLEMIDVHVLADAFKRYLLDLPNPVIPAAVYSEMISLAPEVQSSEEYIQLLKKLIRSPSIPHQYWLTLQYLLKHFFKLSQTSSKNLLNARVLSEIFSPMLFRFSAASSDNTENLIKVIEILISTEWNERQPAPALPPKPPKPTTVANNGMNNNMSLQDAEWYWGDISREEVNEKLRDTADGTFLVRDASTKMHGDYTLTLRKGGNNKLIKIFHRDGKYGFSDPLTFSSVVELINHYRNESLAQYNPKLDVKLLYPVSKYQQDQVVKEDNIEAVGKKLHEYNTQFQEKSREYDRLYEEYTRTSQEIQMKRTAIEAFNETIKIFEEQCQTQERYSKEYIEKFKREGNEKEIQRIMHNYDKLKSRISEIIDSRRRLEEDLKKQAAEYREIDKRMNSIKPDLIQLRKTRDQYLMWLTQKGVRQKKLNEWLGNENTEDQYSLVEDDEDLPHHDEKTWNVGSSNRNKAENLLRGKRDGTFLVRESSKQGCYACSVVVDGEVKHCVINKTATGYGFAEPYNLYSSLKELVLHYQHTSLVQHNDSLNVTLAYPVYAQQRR
Procedure, shortened: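 Recombinant PI3Kα (20 ng) phosphorylated 12.5 μg phosphatidylinositol with 10 μM ATP and 1 μCi ^32γ P […] in 10 mM Hepes pH 7.5, 50 mM MgCl2 for 20 min at 30° C. Lipids were extracted with MeOH/CHCl3, resolved by TLC, and labelled PI quantified by autoradiography densitometry; PI-103 served as standard.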

mTOR = molecular target: T2, mTOR (Homo sapiens, UniProt P42345); assay: mTOR activity assay (cell ELISA, Phospho-AKT Ser 473, A2780 cells); assay type: cell-based
T2 construct: endogenous in cells; host or cells: A2780 ovarian cell line (ATCC)
Procedure, shortened: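 A2780 cells adhered 18-24 h, serum-starved 24 h, then stimulated with 20% FCS for 30 min alongside compound-treated sets. Fixed cells probed for phospho-AKT Ser473 by HRP/OPD cell ELISA, absorbance 490 nm. Values given as percentage or fold decrease in AKT phosphorylation relative to stimulated cells.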

SKOV3 = assay: Cytotoxicity assay (propidium iodide), SKOV3; assay type: cell-based; details: Homo sapiens, SK-OV-3; SKOV3 (C3b, ovarian); 48 hours
Procedure: as §4

OVCAR 3 = assay: Cytotoxicity assay (propidium iodide), OVCAR 3; assay type: cell-based; details: Homo sapiens; OVCAR 3 (C3c, ovarian); 48 hours
PANC 1 = assay: Cytotoxicity assay (propidium iodide), PANC 1; assay type: cell-based; details: Homo sapiens; PANC 1 (C5a, pancreatic); 48 hours
Procedure: as §4

CAPAN1 = assay: Cytotoxicity assay (propidium iodide), CAPAN1; assay type: cell-based; details: Homo sapiens, CAPAN-1; CAPAN1 (C5b, pancreatic); 48 hours
Procedure: as §4

HT29 = assay: Cytotoxicity assay (propidium iodide), HT29; assay type: cell-based; details: HT29 (C4a, colon); 48 hours
Procedure: as §4

MDA MB 231 = assay: Cytotoxicity assay (propidium iodide), MDA MB 231; assay type: cell-based; details: MDA MB 231 (C6a, breast); 48 hours
Procedure: as §4

PC3 [4] = system: PC3
Procedure: as §4

Row | IC50 (STAT3; Homo sapiens) [µM] | IC50 (IL-6 [1]; Monocyte) [µM] | IC50 (PI3Kα kinase) [µM] | IC50 (PC3 [4]) [µM] | SMILES | IC50 (A549; Homo sapiens) [µM] | IC50 (H460; Homo sapiens, NCI-H460) [µM] | IC50 (A2780; Homo sapiens) [µM] | IC50 (PC3 [3]) [µM] | IC50 (HCT116) [µM] | IC50 (U 373) [µM] | IC50 (U 87 MG) [µM] | IC50 (A549) [µM] | IC50 (H460) [µM] | IC50 (A2780) [µM] | IC50 (HT29) [µM] | IC50 (MDA MB 231) [µM] | other results
1 | 5 to 10 | 0.001 to 5 |  |  | CN(N=Cc1cnc2ccc(-c3cccnc3)cn12)S(=O)(=O)c1ccccc1C#N [Example 9, 2-Cyano-N-methyl-N′-((6-(pyridine-3-yl)imidazo[1,2-a]pyridine-3-yl)methylene)benzenesulfonohydrazide] | 0.01 to 5 | 0.01 to 5 | 0.01 to 5 | 0.01 to 5 |  |  |  |  |  |  |  |  | IC50 (MDA MB 468): 0.01 to 5 µM; IC50 (BT 549): 0.01 to 5 µM; IC50 (IL-6 [2]): 0.01 to 0.3 µM; IC50 (TNF-α): 0.01 to 0.3 µM; IC50 (IL-8): 0.3 to 3 µM
2 | > 10 |  |  |  | CN(N=Cc1cnc2ccc(-c3cccnc3)cn12)S(=O)(=O)c1ccc(F)c(C#N)c1 [Example 24, 3-Cyano-4-fluoro-N-methyl-N′-((6-(pyridine-3-yl)imidazo[1,2-a]pyridine-3-yl)methylene) benzenesulfonohydrazide] | 0.01 to 5 | 0.01 to 5 | 0.01 to 5 | 0.01 to 5 | > 5 | 0.01 to 5 | 0.01 to 5 |  |  |  |  |  | 
3 | 0.1 to 5 | 0.001 to 5 | 0.01 to 0.5 |  | CN(N=Cc1cnc2ccc(-c3cccnc3)cn12)S(=O)(=O)c1c(F)cc(F)cc1Br [Example 26, 2-Bromo-4,6-difluoro-N-methyl-N′-((6-(pyridine-3-yl)imidazo[1,2-a]pyridine-3-yl)methylene) benzenesulfonohydrazide] | 0.01 to 5 | 0.01 to 5 | 0.01 to 5 |  |  |  |  |  |  |  |  |  | inhibition at 10 µM (mTOR; 10 μM): > 50%; IC50 (SKOV3): 0.01 to 5 µM; IC50 (OVCAR 3): 0.01 to 5 µM; IC50 (PANC 1): 0.01 to 5 µM; IC50 (CAPAN1): 0.01 to 5 µM
4 | 0.1 to 5 |  | 0.01 to 0.5 |  | Cc1ccc(S(=O)(=O)N(C)N=Cc2cnc3ccc(-c4cccnc4)cn23)cc1F [Example 20, 3-Fluoro-N, 4-dimethyl-N′-((6-(pyridine-3-yl)imidazo[1,2-a]pyridine-3-yl)methylene) benzenesulfonohydrazide] | > 5 | > 5 | > 5 | > 5 | > 5 | > 5 | > 5 |  |  |  |  |  | inhibition at 1 µM (mTOR; 1 μM, read-out: % Inhibition of mTOR activity at 1 μM): 30 to 50%
5 |  |  |  | > 5 | Cc1ccc([N+](=O)[O-])cc1S(=O)(=O)N(C)N=Cc1cnc2ccc(-c3ccc(F)nc3)cn12 [Example 83, N′-((6-(6-fluoropyridine-3-yl)imidazo[1,2-a]pyridine-3-yl)methylene)-n, 2-dimethyl-5-nitrobenzenesulfonohydrazide] |  |  |  |  |  |  |  | > 5 | > 5 | 0.01 to 5 | > 5 | 0.01 to 5 | 
6 |  |  |  | 0.01 to 5 | Cc1cccc(S(=O)(=O)N(C)N=Cc2cnc3ccc(-c4cccnc4)cn23)c1 [Example 2] |  |  |  |  |  |  |  | 0.01 to 5 | 0.01 to 5 | 0.01 to 5 | > 5 | 0.01 to 5 | IC50 (STAT3): 5 to 10 µM; IC50 (IL-6 [1]): 0.001 to 5 µM
